This is an account of results in PubChem BioAssay (NCI).

What all share (assay): NCI tumour cell line growth inhibition, 48 h
Assay [1] has as its system HCC-2998 colon.
Assay [2] relates to KM12 colon.
For assay [3], the system named is MCF7 breast.
For assay [4], the system named is NCI-H23 lung.
In assay [5] the test system is NCI/ADR-RES ovarian.
The test system of assay [6] is RXF 393 renal.
The test system of assay [7] is SK-MEL-5 melanoma.
The test system of assay [8] is SN12C renal.
Assay [9] deals with SNB-75 CNS.
For assay [10], the system named is A498 renal.

Each structure is given as a SMILES string. “And” between values parts separate entries of the source, which are not always exact repeats. Equal values may be shown once.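 These data come from cells grown in 96-well plates and exposed to compound for 48 hours at five concentrations. The concentration for 50% growth inhibition is given as GI50. Definition used: TGI = concentration required for complete inhibition of growth.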

`CN(C)CCCC1(c2ccc(F)cc2)OCc2cc(-c3cncc4ccccc34)ccc21` (stereo not given): the GI50 was 1840 nM in assay [1]; 3410 nM in assay [2]; 1890 nM in assay [3]; 5.73 µM in assay [4]; 4.89 µM in assay [5]; 2510 nM in [6]. The GI50 was 1770 nM in assay [7], 4.05 µM in [8] and 1.66 µM in [9]. The TGI in assay [1] turned out to be 3.71 µM; in assay [2], 12.1 µM; in assay [3], 4.57 µM; in assay [4] it was 20.1 µM; in assay [5] it was 18.8 µM; in [6], 10.1 µM. Also, the TGI in assay [7] stood at 3.2 µM; in assay [8] it was 17 µM; in assay [9] it was 6.86 µM.
Turning to `COc1ccc(-c2cc(/C=C/C(=O)c3cc(OC)c(OC)c(OC)c3)[nH]n2)cc1OC`, the GI50 in [10] is 1.46 µM; in assay [1] it was 1900 nM; in assay [2] it was 780 nM; in assay [4], 1.97 µM; in [5], 2.69 µM; in [6] it was 1530 nM. For the same compound, the GI50 was 1580 nM in assay [7], 1.77 µM in assay [8] and 1.31 µM in assay [9]. Moreover, the TGI stood at 4.99 µM in [10]; 3.4 µM in [1]; 2.27 µM in assay [2]; 4.91 µM in assay [4]; 37 µM in [5]; 3.16 µM in assay [6]. Further, the TGI was found to be 2.93 µM in assay [7], 3.83 µM in [8] and 3.77 µM in assay [9].
For the compound `CCN(CC)CCOc1ccc(/C=C2\CC3C4CC=C5C[C@@H](OC(C)=O)CC[C@]5(C)C4CC[C@]3(C)C2=O)cc1OC` (stereo not given in full), the GI50 in assay [10] was 3.01 µM; in [1], 3740 nM; in assay [2], 1990 nM; in assay [4], 12.4 µM; in assay [5], 5.08 µM; in assay [6], 2580 nM. For the same compound, the GI50 in assay [8] is 12.6 µM; in [9] it was 20.5 µM. Further, the TGI in assay [10] is 11.6 µM; in [1], 14.1 µM; in assay [2] it was 4.18 µM; in assay [4], 49.5 µM; in assay [5], greater than 100 µM; in assay [6] it was 7.77 µM. The TGI in assay [8] is 30.1 µM; in assay [9] it was 58.1 µM.
Turning to `CC1=C(C(=O)CC(=O)C(=O)NC2C3CC4CC(C3)CC2C4)Sc2ccccc2N1` (stereo not given), the TGI in [10], in assay [1], in assay [2], in assay [4], in [6] and in assay [7] was greater than 100 µM throughout. The TGI in assay [8] and in assay [9] was greater than 100 µM throughout.
Turning to `Nc1ccn([C@@H]2C(F)=C(CO)[C@@H](O)[C@H]2O)c(=O)n1`, the GI50 in assay [1] is 962 nM; in assay [2], 650 nM; in assay [3] it was 362 nM; in assay [4], 3.84 µM; in [5], 0.578 µM; in assay [6], 8040 nM. Moreover, the values for the GI50 in assay [7], in assay [8] and in assay [9] were 4370 nM, 0.448 µM and 9.94 µM, respectively. The TGI in [1], in [2], in assay [3], in assay [4], in [5] and in [6] was greater than 100 µM throughout. Moreover, the TGI in [7], in assay [8] and in [9] was greater than 100 µM throughout.
`CC12OC(C(=O)C13CCC3)C1C(=O)c3ccccc3C(=O)C12` (stereo not given): the GI50 is 32400 nM in assay [2]; greater than 100000 nM in [3]; 38 µM in assay [4]; greater than 100 µM in [5]; 76.7 µM in assay [8]; greater than 100 µM in assay [9]. The TGI in assay [2], in assay [3], in [4], in assay [5], in assay [8] and in assay [9] was greater than 100 µM throughout.
Turning to `C=CC1=CC(C)C[C@]1(O)C(=O)OC` (stereo not given in full), the GI50 is greater than 100 µM in [10]; greater than 100000 nM in assay [1]; greater than 100000 nM in [2]; greater than 100 µM in assay [4]; greater than 100000 nM in [6]; greater than 100 µM in [8]. The GI50 in assay [9] was greater than 100 µM. In addition, in assay [7], the TGI was greater than 100 µM.
Turning to `O=C(/C=C/c1cn(-c2ccccc2)nc1-c1ccc([N+](=O)[O-])cc1)c1ccc(Cl)cc1`, the GI50 was 4.99 µM in [10]; greater than 100000 nM in [1]; 3.67 µM in [4]; 3.86 µM in [5]; 1920 nM in [6]; 4.54 µM in assay [8]. In addition, the GI50 in assay [9] is 1.65 µM. Moreover, the TGI was greater than 100 µM in assay [10]; greater than 100 µM in assay [1]; greater than 100 µM in assay [4]; greater than 100 µM in [5]; 5.19 µM in assay [6]; greater than 100 µM in assay [7]. In addition, the TGI was greater than 100 µM in assay [8] and 4.84 µM in [9].
For `COc1ccc2c(c1)nc1n2C(c2ccc(F)cc2)SC1` (stereo not given), the GI50 was 18400 nM in assay [1]; 23300 nM in assay [2]; 18500 nM in [3]; 18.9 µM in [4]; 20.7 µM in assay [5]; 82900 nM in assay [6]. In addition, the GI50 in [7] is 15400 nM; in assay [8] it was 32.2 µM; in assay [9], 25.6 µM. The TGI in assay [1] is 57.1 µM; in [2] it was 70.2 µM; in assay [3], greater than 100 µM; in assay [4], greater than 100 µM; in assay [5], 45.8 µM; in [6], greater than 100 µM. The TGI is 28.7 µM in assay [7], greater than 100 µM in assay [8] and greater than 100 µM in assay [9].
As to `COc1ccc(-c2nc3c(c(=O)n2C(C)=O)C(c2ccc(Cl)cc2)c2sc4c(Cl)cccc4c2O3)cc1` (stereo not given), the GI50 was 680 nM in assay [1]; 349 nM in assay [2]; 151 nM in assay [3]; 0.343 µM in assay [4]; 0.187 µM in [5]; 235 nM in assay [6]. The GI50 in assay [7] was 297 nM; in [8], 0.64 µM; in [9], 0.738 µM. For the same compound, the TGI turned out to be 2.48 µM in assay [1]; 1.91 µM in [2]; 1.37 µM in assay [3]; 2.09 µM in assay [4]; 0.919 µM in assay [5]; 0.675 µM in [6]. Further, the TGI was determined as 1.11 µM in assay [7], 2.23 µM in [8] and 9.98 µM in [9].
As for `NC(N)=N/N=C/c1c(-c2ccc(Cl)c([N+](=O)[O-])c2)nc2n1CCS2`, the GI50 in assay [10] is 18.3 µM; in [2] it was 12400 nM; in assay [4] it was 14.3 µM; in assay [5], 15.8 µM; in assay [7], 15000 nM; in assay [8] it was 2.29 µM. In addition, the GI50 in [9] is 16 µM. Further, the TGI in [10] turned out to be 39.5 µM; in [2], 25.7 µM; in assay [4], 27.3 µM; in assay [5], 32.7 µM; in assay [7], 36.7 µM; in [8] it was 9.04 µM. The compound further yielded a TGI in assay [9] of 37.9 µM.
In the case of `Cc1ccc(/C=C2\CNC/C(=C\c3ccc(C)cc3)C2=O)cc1`, the GI50 in assay [10] is 1.63 µM; in assay [1] it was 1420 nM; in [2] it was 399 nM; in assay [6], 2240 nM and 1810 nM; in assay [7], 2100 nM; in assay [8], 1.77 µM. The GI50 in [9] is 8.74 µM. The TGI is 3.36 µM and 3.56 µM in [10]; 2.77 µM and 3.07 µM in [1]; 1.55 µM and 3.32 µM in assay [2]; greater than 100 µM in assay [3]; 3.79 µM and 4.1 µM in [4]; 3.84 µM and 3.29 µM in assay [6]. In addition, the TGI in [7] was 4.1 µM and 6.03 µM; in assay [8], 3.24 µM and 6.25 µM; in assay [9] it was 68.1 µM.
On to `O=[N+]([O-])C1C2C=CC(C2)[C@H]1c1ccc(Cl)cc1Cl` (stereo not given in full), for which the TGI in [10] was greater than 100 µM; in assay [1], greater than 100 µM; in assay [2], greater than 100 µM; in assay [4], greater than 100 µM; in [6] it was 74.1 µM; in [7], 24.7 µM. The TGI in assay [8] and in assay [9] was greater than 100 µM each time.
Take `c1ccc(NC[Si]23OCCN(CCO2)CCO3)cc1`: the TGI in assay [10], in assay [1], in assay [2], in assay [4], in assay [6] and in assay [7] was greater than 100 µM throughout. The TGI in assay [8] and in assay [9] was greater than 100 µM each time.
